In US11691947B2, “Isoindoline compositions and methods for treating neurodegenerative disease” (priority 2014, dated 2023):
Entries after “also recorded” stand apart in the source; their conditions may differ.

How the values were obtained:
[1] = system: Abeta 42 oligomer-induced synapse loss in primary neurons; experiment: Abeta oligomer-induced synapse loss assay; assay type: cell-based
Method: The number of synapses can also be quantified in this assay by immunofluorochemistry.
Primary hippocampal neuronal culture is established as in the membrane trafficking assay above. […] Pretreatment with test compounds for 1 hr and addition of Abeta oligomers or no oligomer (vehicle alone) is followed by incubation for an additional 23 hrs.
The plates are then washed 3× with PBS for 5 min each. The plates are blocked at RT for 1 hr in 5% goat serum and 0.5% Triton X-100 in PBS. Primary antibodies (anti-MAP 2 polyclonal, Millipore #AB5622 and anti-Beta Amyloid 6E10 monoclonal, Covance #SIG-39300, at 1 microgram/ml, and rabbit polyclonal anti-synaptophysin, Anaspec, at 0.2 microgram/ml) were diluted 1:1000 in 5% goat serum with PBS. Primary antibodies are incubated overnight at 4° C. The plates are then washed 3× with PBS for 5 min each. Secondary antibodies (Alex Flor 488 polyclonal, Invitrogen #A11008 and Alexa Flor 647 monoclonal, Invitrogen #A21235) are diluted 1:1000 in 5% goat serum with PBS. Secondary antibodies are incubated at RT for 1 hr. The plates are washed once with PBS. DAPI (4′,6-diamidino-2-phenylindole, Invitrogen) is then applied at 0.03 ug/ul and incubated at RT for 5 min, then washed with PBS.

[2] = system: MDA-MB-435 or MDA-MB231 or SKOV-3 cells; experiment: MTS tumor cell viability assay (agonist/antagonist activity of sigma-2 ligands); assay type: cell-based
Method: The cytotoxicity of test compounds is determined using the CellTiter96 Aqueous One Solution Assay (Promega, Madison, Wis.). Briefly, MDA-MB-435 or MDA-MB231 or SKOV-3 cells were seeded in a 96-well plate at a density of 2000 cells/well on the day prior to treatment with sigma-2 receptor selective ligands. After a 24 hour treatment, the CellTiter 96 AQueous One Solution Reagent is added to each well, and the plate incubated for 2 hours at 37° C. The plate is read at 490 nm in a Victor3 plate reader (PerkinElmer Life and Analytical Sciences, Shelton, Conn.). The EC^50 value, defined as the concentration of the sigma ligand required to inhibit cell viability by 50% relative to untreated cells, is determined from the dose response curve for each cell line. Siramesine is accepted as an agonist.

neuronal cultures = experiment: Nuclear intensity/morphology in neuronal cultures treated with sigma compounds; assay type: cell-based; conditions: 24 hours treatment, compared to vehicle
Method: Neuronal cultures are treated with various concentrations of sigma compounds for 24 hours and nuclear intensity compared to vehicle is measured. […] Isoindoline test compounds of the present disclosure are analyzed in this assay to help determine neuronal phenotype, results are shown in Table 2.

caspase-3 = conditions: cited from earlier work; for caspase-3 activation: tumor cells and neurons, WO2013/029060 FIGS. 10A and 10B

Structure (SMILES)	elimination of Abeta 42 oligomer-induced synapse loss [1]	Action [2]	nuclear morphology / nuclear intensity in neurons (neuronal cultures)	block of caspase-3 activation by agonist SV-119 in neurons (caspase-3; neurons, WO2013/029060 FIG. 10B)	caspase-3 activation (caspase-3)	inhibition of caspase-3 activation in tumor cells (caspase-3; tumor cells, WO2013/029060 FIG. 10A)	recovery of synapse loss [1] [%]
CCCN(CCC)CCc1ccc(OC)c(OCCc2ccccc2)c1 [NE-100]	completely eliminated synapse loss						
COc1cc2c(cc1OC)CN(CCCCNC(=O)c1cc(C)ccc1OC)CC2 [RHM-1, N-[4-(3,4-dihydro-6,7-dimethoxyisoquinolin-2(1H)-yl)butyl]-2-methoxy-5-methylbenzamide]		Antagonist	do not decrease nuclear intensity	not able to block activation	do not induce caspase-3 activity	inhibits the activation in tumor cells	
CCC(Oc1ccc(Cl)cc1)C(=O)OC1CC2CCC(C1)N2C (stereo not drawn) [SM-21]	only weakly active in eliminating synapse loss						20
COc1ccc(C)cc1NC(=O)OC1C[C@H]2CCC[C@@H](C1)N2CCCCCCN (stereo partly drawn) [SV-119]		Full agonist	cause significant abnormal nuclear morphology in neurons		activate caspase-3 in tumor cells and neurons		
Fc1ccc(-n2cc(CCCCN3CCC4(CC3)OCc3ccccc34)c3ccccc32)cc1 [Siramesine]		Full agonist	cause significant abnormal nuclear morphology in neurons		activate caspase-3 in tumor cells and neurons; also recorded: induces caspase-3 activity		
O=C(CCCN1CCC(O)(c2ccc(Cl)cc2)CC1)c1ccc(F)cc1 [haloperidol]	completely eliminated synapse loss						
